Laboratory results taken from ChEMBL document CHEMBL1146461, “Vibsane diterpenoids from the leaves and flowers of Viburnum odoratissimum” (2004).

Columns and labels:
NUGC-3 = assay: Cytotoxicity against human NUGC3 assessed as survival at 20 ug/ml by MTS method; assay type: functional; conditions: read-out: Survival
[1] = Cytotoxicity against human HONE1 assessed as survival at 20 ug/ml by MTS method; assay type: functional; conditions: read-out: Survival

Row | Structure (SMILES) | viability at 20 µg/mL (NUGC-3) [%] | viability at 20 µg/mL [1] [%]
1 | C=C(C)C(O)CC[C@@]1(C)CC=C(CO)C(=O)[C@H](CC(C)=O)[C@@H]1/C=C/OC(=O)C=C(C)C (stereo not given in full) | 58 | –
2 | C=C(C)C(CC[C@@]1(C)CC=C(COC(C)=O)C(=O)[C@@H](CC(C)=O)[C@@H]1/C=C/OC(=O)C=C(C)C)OC(C)=O (stereo not given in full) | 0 | 0
3 | CC(=O)C[C@@H]1C(=O)C(COC(C)=O)=CC[C@](C)(C/C=C/C(C)(C)OC(C)=O)[C@H]1/C=C/OC(=O)C=C(C)C | 0 | 0
